ChEMBL document CHEMBL3875152, “Synthesis and evaluation against Leishmania amazonensis of novel pyrazolo[3,4-d]pyridazinone-N-acylhydrazone-(bi)thiophene hybrids” (Eur J Med Chem, 2016)

Assays:
Leishmania amazonensis [1] = assay: Antileishmanial activity against Leishmania amazonensis WHOM/BR/75/JOSEFA promastigotes after 72 hrs by Neubauer chamber method; format: functional
Leishmania amazonensis [2] = assay: Antileishmanial activity against Leishmania amazonensis WHOM/BR/75/JOSEFA axenic amastigotes after 72 hrs by Neubauer chamber method; format: functional
[3] = Cytotoxicity against mouse L929 cells assessed as decrease in cell viability after 48 hrs by MTT method; format: toxicity
[4] = Cytotoxicity against mouse J774A1 cells assessed as decrease in cell viability after 48 hrs by MTT method; format: toxicity, J774.A1
[5] = Selectivity index, ratio of CC50 for mouse J774A1 cells to IC50 for Leishmania amazonensis WHOM/BR/75/JOSEFA promastigotes; format: functional, J774.A1
[6] = Selectivity index, ratio of CC50 for mouse L929 cells to IC50 for Leishmania amazonensis WHOM/BR/75/JOSEFA promastigotes; format: functional
[7] = Selectivity index, ratio of CC50 for mouse L929 cells to IC50 for Leishmania amazonensis WHOM/BR/75/JOSEFA axenic amastigotes; format: functional
[8] = Selectivity index, ratio of CC50 for mouse J774A1 cells to IC50 for Leishmania amazonensis WHOM/BR/75/JOSEFA axenic amastigotes; format: functional, J774.A1

Structure (SMILES) | IC50 (Leishmania amazonensis [1]) [µM] | further results
O=C(N/N=C/c1cccs1)c1nn(-c2ccc(Cl)cc2)c(=O)c2c1cnn2-c1ccc(Cl)cc1 | > 100 | –
O=C(N/N=C/c1ccc(-c2cccs2)s1)c1n[nH]c(=O)c2c1cnn2-c1ccc(Cl)cc1 | > 100 | –
NNC(=O)c1nn(-c2ccc(Cl)cc2)c(=O)c2c1cnn2-c1ccccc1 | > 100 | –
O=C(N/N=C/c1ccc(-c2cccs2)s1)c1nn(-c2ccc(Cl)cc2)c(=O)c2c1cnn2-c1ccc(Cl)cc1 | > 100 | –
NNC(=O)c1n[nH]c(=O)c2c1cnn2-c1ccc(Cl)cc1 | > 100 | –
NNC(=O)c1nn(-c2ccccc2)c(=O)c2c1cnn2-c1ccc(Cl)cc1 | > 100 | –
O=C(N/N=C/c1ccc(-c2cccs2)s1)c1nn(-c2ccc(Cl)cc2)c(=O)c2c1cnn2-c1ccccc1 | > 100 | –
O=C(N/N=C/c1ccc(-c2cccs2)s1)c1nn(-c2ccccc2)c(=O)c2c1cnn2-c1ccc(Cl)cc1 | > 100 | –
O=C(N/N=C/c1cccs1)c1n[nH]c(=O)c2c1cnn2-c1ccccc1 | > 100 | –
O=C(N/N=C/c1cccs1)c1nn(-c2ccc(Cl)cc2)c(=O)c2c1cnn2-c1ccccc1 | > 100 | –
O=C(N/N=C/c1cccs1)c1nn(-c2ccccc2)c(=O)c2c1cnn2-c1ccc(Cl)cc1 | > 100 | –
NNC(=O)c1nn(-c2ccc(Cl)cc2)c(=O)c2c1cnn2-c1ccc(Cl)cc1 | > 100 | –
O=C(N/N=C/c1ccc(-c2cccs2)s1)c1n[nH]c(=O)c2[nH]ncc12 | > 100 | –
CN(/N=C/c1ccc(-c2cccs2)s1)C(=O)c1nn(-c2ccccc2)c(=O)c2c1cnn2-c1ccccc1 | > 100 | –
O=C(N/N=C/c1cccs1)c1n[nH]c(=O)c2c1cnn2-c1ccc(Cl)cc1 | > 100 | –

Now from value to molecule, other results behind:

IC50 (Leishmania amazonensis [1]) [µM] | Structure (SMILES) | further results
> 100 | O=C(N/N=C/c1cccs1)c1n[nH]c(=O)c2[nH]ncc12 | –
> 100 | NNC(=O)c1n[nH]c(=O)c2[nH]ncc12 | –
> 100 | NNC(=O)c1nn(-c2ccccc2)c(=O)c2c1cnn2-c1ccccc1 | –
10.8 | O=C(N/N=C/c1ccc(-c2cccs2)s1)c1n[nH]c(=O)c2c1cnn2-c1ccccc1 | IC50 (Leishmania amazonensis [2]): > 100 µM; CC50 at 48 h [3]: < 1 µM; CC50 at 48 h [4]: 114 µM; Ratio CC50/IC50 [5]: 10.6
> 100 | NNC(=O)c1n[nH]c(=O)c2c1cnn2-c1ccccc1 | –
0.64 | C[C@@H]1[C@H](O)[C@@H](C)/C=C/C=C/C=C/C=C/C=C/C=C/C=C/[C@H](O[C@@H]2O[C@H](C)[C@@H](O)[C@H](N)[C@@H]2O)C[C@@H]2O[C@](O)(C[C@@H](O)C[C@@H](O)[C@H](O)CC[C@@H](O)C[C@@H](O)CC(=O)O[C@H]1C)C[C@H](O)[C@H]2C(=O)O [AMPHOTERICIN B] | CC50 at 48 h [3]: 79.1 µM; CC50 at 48 h [4]: 16.8 µM; Ratio CC50/IC50 [6]: 123.64; Ratio CC50/IC50 [5]: 26.25
85 | O=C(N/N=C/c1cccs1)c1nn(-c2ccccc2)c(=O)c2c1cnn2-c1ccccc1 | IC50 (Leishmania amazonensis [2]): 32.7 µM; CC50 at 48 h [3]: 186 µM; CC50 at 48 h [4]: 106 µM; Ratio CC50/IC50 [6]: 2.19; Ratio CC50/IC50 [5]: 1.25; Ratio CC50/IC50 [7]: 5.68; Ratio CC50/IC50 [8]: 3.25
3.63 | O=C(N/N=C/c1ccc(-c2cccs2)s1)c1nn(-c2ccccc2)c(=O)c2c1cnn2-c1ccccc1 | IC50 (Leishmania amazonensis [2]): 2.32 µM; CC50 at 48 h [3]: 77.4 µM; CC50 at 48 h [4]: > 191 µM; Ratio CC50/IC50 [6]: 21.33; Ratio CC50/IC50 [5]: >52.71; Ratio CC50/IC50 [7]: 33.38; Ratio CC50/IC50 [8]: >82.48
